# Test results: patent publication US10858316B2, “Small molecule inhibitors of the MCL-1 oncoprotein and uses thereof” (University of Maryland, Baltimore, priority 2015, dated 2020)
# “And” between values parts separate entries of the source, which are not always exact repeats. Identical values can stand only once. Like-named read-outs stand apart in the source and are kept apart here.
# How the values were obtained:
# Bcl-xL = Bcl-xL (Homo sapiens (Human), UniProt Q07817); assay: Fluorescence polarization competition assay, Bcl-xL; assay type: binding; details: for Bcl-xL Exp ΔG: ΔG from experimental Ki
# Procedure: (§1) Fluorescence polarization experiments were conducted using a BMG PHERAstar FS multimode microplate reader equipped with two PMTs for simultaneous measurements of the perpendicular and parallel fluorescence emission. The assays were performed in black polypropylene 384-well microplate (Costar) with a final volume of 20 microliter. […] Regression analysis was carried out using Origin (OriginLab, Northampton, Mass.) to fit the data to the Hill equation (1) to determine the initial binding affinity (KD) and the IC50 in the FPCA. For the fluorescence polarization competition titrations, an equation derived by Nikolovska-Coleska et al. was used to calculate the Ki from the IC50 data.
# Mcl-1 [1] = target: Mcl-1 (Homo sapiens (Human), UniProt Q07820); assay: Fluorescence polarization competition assay (FPCA), Mcl-1 / FITC-Bak BH3 peptide; assay type: binding; details: for Mcl-1 Exp ΔG: ΔG=−RTlnKi from experimental Ki
# Description: (§2) The tagged protein was initially purified from the crude cell lysate by immobilized metal affinity chromatography (IMAC) chromatography (GE Healthcare Life Sciences), and after dialysis to remove the imidazole the affinity tag was cleaved using PreScission Protease (GE Healthcare Life Sciences). A Sephacryl S-200 size exclusion column was used as a final purification step before the protein was concentrated with a 10,000 MWCO centifugal filter concentrator (Millipore).
# as §1
# (§3) The target molecules were assayed for their abilities to disrupt the Mcl-1-Bak-BH3 PPI in a fluorescence polarization competition (FPC) assay with Mcl-1 and FITC-labeled Bak-BH3 peptide. Further details on the FPC assay can be found in the Supporting Information.
# Mcl-1 [2] = assay: as above; assay type: binding, human; details: for Exp. ΔG diff.: between Mcl-1 and Bcl-xL, positive favors Mcl-1; for Selectivity, Ki (Bcl-xL) divided by Ki (Mcl-1): Mcl-1 over Bcl-xL
# Description: as §2, §1, §3
# [3] = Ki from IC50 by Nikolovska-Coleska equation, NA = no activity, read-out: Bcl-xL Ki
# [4] = FPCA with FITC-Bak, Ki from IC50 by Nikolovska-Coleska equation, read-out: Mcl-1 Ki
# Sequence of Mcl-1 (Homo sapiens (Human), UniProt Q07820) (Q07820 172-327): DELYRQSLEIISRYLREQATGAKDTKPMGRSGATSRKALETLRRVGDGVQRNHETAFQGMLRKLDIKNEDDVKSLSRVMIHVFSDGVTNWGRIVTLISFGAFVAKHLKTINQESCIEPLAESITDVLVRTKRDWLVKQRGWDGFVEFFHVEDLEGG
# Sequence of Bcl-xL (Q07817 whole entry): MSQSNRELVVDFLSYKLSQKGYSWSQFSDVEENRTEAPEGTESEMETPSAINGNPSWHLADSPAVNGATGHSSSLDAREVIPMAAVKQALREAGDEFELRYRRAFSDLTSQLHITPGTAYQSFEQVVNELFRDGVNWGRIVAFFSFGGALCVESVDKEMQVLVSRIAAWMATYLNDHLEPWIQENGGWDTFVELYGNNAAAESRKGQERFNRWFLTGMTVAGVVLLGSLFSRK
Structure (SMILES),Ki (Bcl-xL; [3]) [µM],Ki (Mcl-1 [1]; [4]),Bcl-xL Exp ΔG (Bcl-xL) [kcal/mol],Mcl-1 Exp ΔG (Mcl-1 [1]) [kcal/mol],Exp. ΔG diff. (Mcl-1 [2]) [kcal/mol],further results
CC(C)CN(c1ccc(C(=O)O)c(O)c1)S(=O)(=O)c1ccc(-c2ccccc2)cc1 [4jc117-4 13ac],10.8 ± 2.55,4.11 ± 0.245 µM,,,,
O=C(O)c1cc(S(=O)(=O)Nc2ccc(Oc3ccc(Cl)cc3Cl)cc2)c2ccccc2c1O [3bg; SF-5-302],,,-9.16,-9.68,0.52,
Cc1cc(Oc2ccc(S(=O)(=O)N(Cc3ccccc3)c3ccc(O)c(C(=O)O)c3)cc2)cc(C)c1Cl [LC-5-129 29],1.82 ± 0.234,1.4 ± 0.47 µM,,,,
O=C(O)c1cc(S(=O)(=O)Nc2ccc(Oc3cccc(Br)c3)cc2)c2ccccc2c1O [3be; SF-5-303],,,-8.89,-9.47,0.58,
"O=C(O)c1cc(S(=O)(=O)Nc2ccc(Br)cc2Br)c2ccccc2c1O [Compound 3o, 4-(N-(2,4-Dibromophenyl)sulfamoyl)-1-hydroxy-2-naphthoic Acid]",2.31 ± 1.35,,,,,"Ki (Mcl-1 [1]; FPCA, read-out: Mcl-1 Ki): 0.42 µM; Selectivity, Ki (Bcl-xL) divided by Ki (Mcl-1) (Mcl-1 [2]): 5.5"
"Cc1cc(C)cc(Oc2ccc(NS(=O)(=O)c3cc(C(=O)O)c(O)c4ccccc34)cc2)c1 [Compound 3bf, 4-(N-(4-(3,5-Dimethylphenoxy)phenyl)sulfamoyl)-1-hydroxy-2-naphthoic Acid]",0.39 ± 0.1,0.284 µM,,,,"Selectivity, Ki (Bcl-xL) divided by Ki (Mcl-1) (Mcl-1 [2]): 1.4"
"O=C(O)c1cc(S(=O)(=O)Nc2ccc(Oc3cccc4ccccc34)cc2)c2ccccc2c1O [Compound 3bd, 1-Hydroxy-4-(N-(4-(naphthalen-1-yloxy)phenyl)sulfamoyl)-2-naphthoic Acid]",0.22 ± 0.06,0.082 µM,,,,"Selectivity, Ki (Bcl-xL) divided by Ki (Mcl-1) (Mcl-1 [2]): 3.7"
O=C(O)c1cc(S(=O)(=O)Nc2ccc([N+](=O)[O-])cc2)c2ccccc2c1O [3ac; MEL-3-005],,,-6.31,-7.29,0.98,
Cc1cc(Oc2ccc(N(CC(C)C)S(=O)(=O)c3cc(C(=O)O)c(O)c4ccccc34)cc2)cc(C)c1Cl [3bj; JY-5-377],,,-9.23,-9.68,0.45,
"O=C(O)c1cc(S(=O)(=O)NCc2ccc(Cl)cc2)c2ccccc2c1O [Compound 3f, 4-(N-(4-Chlorobenzyl)sulfamoyl)-1-hydroxy-2-naphthoic Acid]",338 ± 203,21 ± 3.9 µM,,,,"Selectivity, Ki (Bcl-xL) divided by Ki (Mcl-1) (Mcl-1 [2]): 16"
Cc1cc(Oc2ccc(S(=O)(=O)N(c3ccc(C(=O)O)c(O)c3)C3CCCC3)cc2)cc(C)c1Cl [LC-4-104 13bc],1.91 ± 0.117,1.76 ± 0.208 µM,,,,
O=C(O)c1cc(S(=O)(=O)Nc2ccc(Br)cc2)c2ccccc2c1O [1; 3a],,,-5.85,-7.58,1.73,
O=C(O)c1cc(S(=O)(=O)Nc2ccc3ccccc3c2)c2ccccc2c1O [3q; EW-2-057],,,-5.68,-7.28,1.60,
O=C(O)c1cc(S(=O)(=O)Nc2ccc(Br)cc2Br)c2ccccc2c1O [3o; SF-5-290],,,-7.68,-8.69,1.01,
Cc1cc(Oc2ccc(S(=O)(=O)N(CC(C)C)c3ccc(C(=O)O)c(O)c3)cc2)cc(C)c1Cl [Compound 4jc117-6],,,,,,"Ki (Bcl-xL; fluorescence polarization competition assay, read-out: Ki (μM) Bcl-xL): 0.05 ± 0.01 µM; Ki (Mcl-1 [1]; fluorescence polarization competition assay, read-out: Ki (μM) Mcl-1): 0.02 ± 0.012 µM"
CC(C)CN(c1ccc(C(=O)O)c(O)c1)S(=O)(=O)c1ccc2ccccc2c1 [4jc117-3 13ab],43.1 ± 14.7,13.8 ± 1.32 µM,,,,
Cc1cc(Oc2ccc(NS(=O)(=O)c3cc(C(=O)O)c(O)c4ccccc34)cc2)cc(C)c1Cl [3bi; JY-5-371],,,-8.61,-9.45,0.84,
"O=C(O)c1cc(S(=O)(=O)NCC2CCCCC2)c2ccccc2c1O [Compound 3g, 4-(N-(Cyclohexylmethyl)sulfamoyl)-1-hydroxy-2-naphthoic Acid]",77.6 ± 14.3,7.31 ± 1.42 µM,,,,"Selectivity, Ki (Bcl-xL) divided by Ki (Mcl-1) (Mcl-1 [2]): 11"
"Cc1cc(Oc2ccc(N(C3CCCC3)S(=O)(=O)c3cc(C(=O)O)c(O)c4ccccc34)cc2)cc(C)c1Cl [Compound 3bk, 4-(N-(4-(4-Chloro-3,5-dimethylphenoxy)phenyl)-N-cyclopentylsulfamoyl)-1-hydroxy-2-naphthoic Acid]",0.29 ± 0.05,,,,,"Ki (Mcl-1 [1]; FPCA, read-out: Mcl-1 Ki): 0.033 µM; Selectivity, Ki (Bcl-xL) divided by Ki (Mcl-1) (Mcl-1 [2]): 8.8"
O=C(O)c1cc(S(=O)(=O)NCC2CCCCC2)c2ccccc2c1O [3g; MEL-3-006],,,-5.60,-7.00,1.40,

Structure (SMILES),Ki (Bcl-xL; [3]) [µM],Ki (Mcl-1 [1]; [4]),Bcl-xL Exp ΔG (Bcl-xL) [kcal/mol],Mcl-1 Exp ΔG (Mcl-1 [1]) [kcal/mol],Exp. ΔG diff. (Mcl-1 [2]) [kcal/mol],further results
"O=C(O)c1cc(S(=O)(=O)Nc2ccccc2C(F)(F)F)c2ccccc2c1O [Compound 3u, 1-Hydroxy-4-(N-(2-(trifluoromethyl)phenyl)sulfamoyl)-2-naphthoic Acid]",19.3 ± 9,4.05 ± 2.11 µM,,,,"Selectivity, Ki (Bcl-xL) divided by Ki (Mcl-1) (Mcl-1 [2]): 4.8"
CC(C)CN(c1ccc(OC(C)C)cc1)S(=O)(=O)c1cc(C(=O)O)c(O)c2ccccc12 [3ba; MEL-2-116],,,-7.11,-8.61,,
Cc1ccc(Oc2ccc(NS(=O)(=O)c3cc(C(=O)O)c(O)c4ccccc34)cc2)cc1 [3bc; SF-5-301],,,-8.28,-8.83,0.55,
CC(C)CN(c1ccc(O)c(C(=O)O)c1)S(=O)(=O)c1ccc(-c2ccccc2)cc1 [JY-5-300 18bc],13.9 ± 3.36,8.7 ± 2.05 µM,,,,
O=C(NS(=O)(=O)c1ccc(NCC2CCOCC2)c([N+](=O)[O-])c1)c1ccc(N(Cc2ccccc2)S(=O)(=O)c2ccc(Oc3ccccc3)cc2)cc1O [LC-5-107 30],1.05 ± 0.146,1.23 ± 0.152 µM,,,,
CC(C)CN(c1ccc(C(=O)O)c(O)c1)S(=O)(=O)c1ccccc1 [4jc117-1 13aa],154 ± 27.6,192 ± 37.5 µM,,,,
CC(C)CN(c1ccc(O)c(C(=O)O)c1)S(=O)(=O)c1ccccc1 [JY-5-296 18ba],49.3 ± 5.03,46.5 ± 9.82 µM,,,,
COc1ccc(NS(=O)(=O)c2cc(C(=O)O)c(O)c3ccccc23)cc1 [3z; MEL-3-018],,,-5.65,-6.71,1.06,
Cc1cc(Oc2ccc(N(Cc3ccccc3)S(=O)(=O)c3cc(C(=O)O)c(O)c4ccccc34)cc2)cc(C)c1Cl [3bl; JY-5-380],,,-8.82,-10.24,,
"O=C(O)c1cc(S(=O)(=O)Nc2cccc3ccccc23)c2ccccc2c1O [Compound 3p, 1-Hydroxy-4-(N-(naphthalen-1-yl)sulfamoyl)-2-naphthoic Acid]",110 ± 45,11.2 ± 2 µM,,,,"Selectivity, Ki (Bcl-xL) divided by Ki (Mcl-1) (Mcl-1 [2]): 10"
O=C(NS(=O)(=O)c1ccccc1)c1ccc(N(Cc2ccccc2)S(=O)(=O)c2ccc(Oc3ccccc3)cc2)cc1O [LC-5-096 28],2.34 ± 0.221,1.9 µM and 1.95 µM,,,,
CC(C)CN(c1ccc(O)c(C(=O)O)c1)S(=O)(=O)c1ccc2ccccc2c1 [jy-5-299 18bb],44.6 ± 5.93,7.51 ± 0.84 µM,,,,
"Cc1ccc(Oc2ccc(NS(=O)(=O)c3cc(C(=O)O)c(O)c4ccccc34)cc2)cc1 [Compound 3bc, 1-Hydroxy-4-(N-(4-(p-tolyloxy)phenyl)sulfamoyl)-2-naphthoic Acid]",0.84 ± 0.05,0.335 µM,,,,"Selectivity, Ki (Bcl-xL) divided by Ki (Mcl-1) (Mcl-1 [2]): 2.5"
"O=C(O)c1cc(S(=O)(=O)Nc2ccc(Oc3ccc(Cl)cc3Cl)cc2)c2ccccc2c1O [Compound 3bg, 4-(N-(4-(2,4-Dichlorophenoxy)phenyl)sulfamoyl)-1-hydroxy-2-naphthoic Acid]",0.19 ± 0.02,0.079 µM,,,,"Selectivity, Ki (Bcl-xL) divided by Ki (Mcl-1) (Mcl-1 [2]): 2.4"
Cc1cc(Oc2ccc(N(C3CCCC3)S(=O)(=O)c3cc(C(=O)O)c(O)c4ccccc34)cc2)cc(C)c1Cl [3bk; JY-5-379],,,-8.91,-10.20,1.29,
"O=C(O)c1cc(S(=O)(=O)Nc2ccc(Br)cc2)c2ccccc2c1O [Compound 3a, 4-(N-(4-bromophenyl)sulfamoyl)-1-hydroxy-2-naphthoic Acid]",51.4 ± 31.3,2.76 µM,,,,"IC50 (Mcl-1 [1]; FPCA, read-out: IC50 disruption of Mcl-1-Bak-BH3 PPI): 10900 nM; Selectivity, Ki (Bcl-xL) divided by Ki (Mcl-1) (Mcl-1 [2]): 19"
Cc1cc(Oc2ccc(S(=O)(=O)N(Cc3ccccc3)c3ccc(O)c(C(=O)NS(=O)(=O)c4ccc(NCC5CCOCC5)c([N+](=O)[O-])c4)c3)cc2)cc(C)c1Cl [LC-5-132 33],1.54 ± 0.226,1.01 ± 0.08 µM,,,,
CS(=O)(=O)NC(=O)c1ccc(N(Cc2ccccc2)S(=O)(=O)c2ccc(Oc3ccccc3)cc2)cc1O [LC-5-112 27],7.22 ± 1.07,2.94 ± 0.35 µM,,,,
Cc1cc(CCCNc2ccc(C(=O)O)c(O)c2)cc(C)c1Cl [LC-5-184 36],22.7 ± 4.08,15.2 ± 1.89 µM,,,,
